Test results: patent publication US9745288B2, “Compounds and methods for treating cancer by inhibiting the urokinase receptor” (Indiana University Research and Technology Corporation, priority 2011, dated 2017)
Entries after “also recorded” stand apart in the source; their conditions may differ. Where two headings read alike, the source gives them in different places.

Columns and labels:
hERG channel = target: T1, hERG channel (Homo sapiens, UniProt Q12809); assay: hERG fluorescence polarization Predictor Assay; format: binding; parameters: dose or concentration left out as unconfirmed
T1 construct: purchased Invitrogen (Carlsbad, Calif.)
Description: Inhibition of the hERG channel is undesirable. Checking for hERG blockage is an integral step in the drug discovery cycle. The presently disclosed method is well-suited for high-throughput measurements based on fluorescence polarization (FP) as implemented in the Predictor Assay by Invitrogen (Carlsbad, Calif.). This assay is based on the principle that a fluorescent tracer upon binding to the hERG channel will induce an increase in the FP signal that will diminish when an inhibitor displaces the interaction between the tracer and the hERG channel.
FP measurements for IPR-1 and IPR-69 were performed using an EnVision (PerkinElmer) plate reader at an excitation of 540 nm and emission at 573 nm. […] At the highest concentration of 25 μM, which is near its biological activity in tumor cells, 60% blockage is detected.

MDA-MB-231 cells [1] = assay: Apoptosis assay, flow cytometry with Annexin V-FITC and PI staining; format: cell-based, human; conditions: 50 μM
Protocol: Apoptosis Assay. MDA-MB-231 cells were cultured in DMEM medium supplemented with 10% FBS, 100 IU/mL penicillin and 50 μg/mL streptomycin in a humidified atmosphere containing 5% CO2 at 37° C. and grew to 80-90% confluence in P-60 mm plates, then treated with various amounts of compounds or 1% DMSO (as control) for different time points. Collected the supernatants and washed the cells with 1×PBS twice and collected. The cells were detached by using cellstripper (Mediatech Inc, VA), and washed twice with cold 1× PBS and resuspended in 1× binding buffer (Cat. PNN1001, Invitrogen Corporation, Camarillo, Calif.) at a concentration of 1×10^6 cells/mL. Transferred 100 μL of the solution (1×10^5 cells) to a 5 mL culture tube. Added 5 μL of Recombinant Human Annexin V FITC conjugate (Cat. ANNEXINV01, Invitrogen) and 5 μL of propidium iodide solution (Cat. P4864, Sigma-Aldrich, St. Louis, Mo.). Gently vortexed the cells and incubated for 15 min at room (25° C.) in the dark. Added 400 μL of 1× binding buffer to each tube. Analyzed by flow cytometry (FACScan).
(§1) FIGS. 4A-4D show inhibition of MDA-MB-231 proliferation and mechanism of cell killing. To gain insight into the mechanism by which these compounds are inhibiting growth, a flow cytometry analysis with annexin V-FITC and PI staining was performed. The level of apoptotic cells in MDA-MB-231 was assessed by the percentage of Annexin V-positive/PI-negative cells present after exposure of MDAMB-231 cells to increasing concentration of IPR-69 for 24 h (FIG. 4B). At a concentration of 50 μM, IPR-69 induced significant apoptosis as evidenced by a 51% and 21% increase in apoptotic cells (Annexin V positive/PI-negative) and necrotic cells (Annexin V-positive/PI-positive), respectively. […] At a concentration of 50 μM, 26% of cells were necrotic (Annexin V positive/PI-positive), a 22% increase over control. 46% of cells were apoptotic (Annexin V positive/PInegative), compared with 4% of control.

salmon sperm DNA = assay: Fluorescent Intercalator Displacement assay (ethidium bromide); format: binding; parameters: displacement of ethidium bromide: dose or concentration left out as unconfirmed; conditions: for displacement of ethidium bromide: […] μM; for DNA binding: three concentrations tested
Protocol: Finally, DNA binding by these three compounds was assessed. DNA binding is often a reflection of non-specificity, which can lead to adverse side effects. The well-established Fluorescent Intercalator Displacement assay by Tse et al.^43 that measures displacement of ethidium bromide, a known intercalator of DNA was used. In this assay, ethidium bromide (EB) bound to the salmon sperm DNA.

[2] = tested on: human umbilical vein endothelial cells (HUVEC); assay: Matrigel-based tube formation (angiogenesis) assay; format: cell-based; conditions: HUVEC in Matrigel
MDA-MB-231 cells [3] = assay: MTT proliferation assay; format: cell-based, human; conditions: read-out: IC50 of cell proliferation (MTT)
Protocol: Proliferation Assay. The procedure consisted of culturing cells at 37° C. in 10% FBS-DMEM medium containing various amounts of compound. 5 mM compound stock in 100% DMSO was 1:50 diluted in medium, filtered, and serially diluted in 96-well plate. Then seeded cells were incubated for 3 days. Viable cells were quantified by MTT assay at absorbance of 570 and 630 nm.
as §1

MMP-9 = assay: Gelatin zymography of MDA-MB-231 conditioned medium; format: cell-based, human
Protocol: Gelatin Zymography. MDA-MB-231 cells were treated with different concentrations of uPAR compounds in serum free medium for 24 h, the conditioned medium were collected, concentrated by Amicon Ultra centrifugal filter units (Millipore, #UFC500324), proteins were normalized and electrophoresed on sodium dodecyl sulfate (SDS)-polyacrylamide gels (10%) containing 1 mg/mL gelatin. After electrophoresis, the gel was washed twice in 50 mM Tris-HCl (pH 7.6) containing 5 mM CaCl2 and 2.5% Triton X-100 for 30 minutes at room temperature and incubated in buffer that contained 50 mM Tris-HCl (pH 7.6), 200 mM NaCl, 10 mM CaCl2 at 37° C. for 36 h. Then, the gels were stained with 0.05% Coomassie brilliant blue (CBB) and destained with 30% methanol in 10% acetic acid. Areas of gelatinolytic degradation appeared as transparent bands on the blue stained background of the gel. Data were quantified using Image J.
To degrade collagen within the ECM, malignant cells unleash a series of extracelullar proteases known as matrix metalloproteinases (MMPs).

CYP2C9 = CYP2C9 (Homo sapiens, UniProt P11712); assay: Fluorescence-based CYP2C9 inhibition assay; conditions: human
Protocol: CYP metabolism was measured using a fluorescence-based assay designed by Cohen et al.,^41 recently implemented by Invitrogen (Carlsbad, Calif.).

[4] = tested on: different signaling molecules; assay: Western blot analysis of signaling; format: cell-based; conditions: n=1
Protocol: In light of the previously reported role of uPAR in signaling, the effect of IPR-993, IPR-737, IPR-81 and IPR-69 on signaling was studied by Western blot analysis (FIG. 23). A concentration-dependent study was carried out for IPR-737.

[5] = Homo sapiens, MDA-MB-231, MDA-MB-231

T1 sequence (Q12809 whole entry): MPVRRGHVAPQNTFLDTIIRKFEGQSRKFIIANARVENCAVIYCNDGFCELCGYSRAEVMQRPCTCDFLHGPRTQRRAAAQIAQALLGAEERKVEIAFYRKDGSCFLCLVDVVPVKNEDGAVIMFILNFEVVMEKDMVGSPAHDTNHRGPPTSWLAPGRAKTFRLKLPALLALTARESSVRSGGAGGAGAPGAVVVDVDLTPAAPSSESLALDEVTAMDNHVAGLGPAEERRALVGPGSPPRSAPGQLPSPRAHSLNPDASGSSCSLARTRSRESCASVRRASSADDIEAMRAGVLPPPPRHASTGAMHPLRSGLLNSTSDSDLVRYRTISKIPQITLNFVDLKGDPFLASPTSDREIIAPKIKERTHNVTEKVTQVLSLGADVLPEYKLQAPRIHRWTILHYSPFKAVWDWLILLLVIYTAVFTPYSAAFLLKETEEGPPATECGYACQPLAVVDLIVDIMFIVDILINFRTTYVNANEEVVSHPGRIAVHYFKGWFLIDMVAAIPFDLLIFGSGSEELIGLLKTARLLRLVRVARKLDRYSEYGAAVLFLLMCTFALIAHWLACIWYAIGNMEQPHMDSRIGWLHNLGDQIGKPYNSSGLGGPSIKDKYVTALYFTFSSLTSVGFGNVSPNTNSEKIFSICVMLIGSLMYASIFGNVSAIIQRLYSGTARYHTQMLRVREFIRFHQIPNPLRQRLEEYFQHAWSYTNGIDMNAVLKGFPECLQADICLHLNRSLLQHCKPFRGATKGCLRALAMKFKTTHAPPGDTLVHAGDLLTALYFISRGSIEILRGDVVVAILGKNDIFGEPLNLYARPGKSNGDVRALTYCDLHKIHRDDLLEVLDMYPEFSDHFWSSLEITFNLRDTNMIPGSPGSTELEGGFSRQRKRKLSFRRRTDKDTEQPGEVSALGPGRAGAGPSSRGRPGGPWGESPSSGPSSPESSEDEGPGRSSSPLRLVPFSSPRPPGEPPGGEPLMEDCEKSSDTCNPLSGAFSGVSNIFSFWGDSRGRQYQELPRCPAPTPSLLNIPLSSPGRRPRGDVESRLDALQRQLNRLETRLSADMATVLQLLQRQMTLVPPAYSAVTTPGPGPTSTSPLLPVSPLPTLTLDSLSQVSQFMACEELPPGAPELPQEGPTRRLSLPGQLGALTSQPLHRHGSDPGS
Chain of CYP2C9 (P11712 whole entry): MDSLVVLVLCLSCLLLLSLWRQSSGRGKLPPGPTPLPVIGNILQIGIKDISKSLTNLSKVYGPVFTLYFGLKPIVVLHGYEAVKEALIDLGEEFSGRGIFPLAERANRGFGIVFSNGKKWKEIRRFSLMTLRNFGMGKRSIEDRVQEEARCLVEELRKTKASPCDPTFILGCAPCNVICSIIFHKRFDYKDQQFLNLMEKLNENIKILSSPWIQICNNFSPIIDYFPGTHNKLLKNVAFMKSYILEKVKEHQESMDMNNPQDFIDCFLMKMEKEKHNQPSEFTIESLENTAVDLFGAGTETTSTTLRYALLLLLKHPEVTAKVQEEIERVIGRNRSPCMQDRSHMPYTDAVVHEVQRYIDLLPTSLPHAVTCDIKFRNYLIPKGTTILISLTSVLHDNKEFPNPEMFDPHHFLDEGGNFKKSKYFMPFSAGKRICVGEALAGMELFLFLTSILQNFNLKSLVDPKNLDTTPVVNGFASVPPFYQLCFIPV

CN(C)c1ccc(CNCCC(Cc2ccccc2)c2ccc3c(c2)OCO3)cc1 (racemic) [IPR-9, 4-(((3-(benzo[d][1,3]dioxol-5-yl)-4-phenylbutyl)amino)methyl)-N,Ndimethylaniline]
hERG channel blockage (hERG channel; 1, 10 and […] μM): even greater hERG K^+ channel blockage than the well-known channel blocker E-4031
increase in necrotic cells (Annexin V-positive/PI-positive) (MDA-MB-231 cells [1]): 22%
apoptotic cells (Annexin V positive/PI-negative) (MDA-MB-231 cells [1]; percent of cells): 46%
necrotic cells (Annexin V positive/PI-positive) (MDA-MB-231 cells [1]; percent of cells): 26%
displacement of ethidium bromide (salmon sperm DNA): 30%
DNA binding (salmon sperm DNA): not strongly affected
IC50 [2]: 3 µM
IC50 (MDA-MB-231 cells [3]; [5]): 6 µM

Cc1cc(C)cc(NC(=O)c2cnn(-c3ccc(C(C)C)cc3)c2C2CCNCC2)c1 [IPR-69, N-(3,5-dimethylphenyl)-1-(4-isopropylphenyl)-5-(piperidin-4-yl)-1H-pyrazole-4-carboxamide]
MMP-9 activity in gelatin zymography (MMP-9): some inhibition of MMP-9
IC50 (MMP-9; estimated, read-out: IC50 for inhibition of MMP-9 activity): 25 µM
hERG blockage (hERG channel; […] μM): 60%
inhibition of CYP2C9 (CYP2C9): little inhibition of CYP2C9
increase in necrotic cells (Annexin V-positive/PI-positive) (MDA-MB-231 cells [1]): 21%
increase in apoptotic cells (Annexin V positive/PI-negative) (MDA-MB-231 cells [1]; 24 h): 51%
effect on signaling molecules [4]: did not seem to be much of an effect
displacement of ethidium bromide (salmon sperm DNA): less than 10%
DNA binding (salmon sperm DNA): not strongly affected; also recorded: no DNA binding
IC50 [2]: 3 µM
IC50 (MDA-MB-231 cells [3]; [5]): 18 µM
IC50 (MDA-MB-231 cells [3]; MDA-MB-231): 17 µM
